Patent US8691764B2, “Inhibitors of NF-κB activity” (The Research Foundation for the State University of New York, priority 2007, dated 2014)

How the values were obtained:
pancreatic cancer = details: animal tumor model; cited from earlier work
[1] = test system: BxPC-3 human pancreatic cancer cells; assay: MTT cell growth assay, BxPC-3; type: cell-based; details: 24 hours
Procedure: The growth of the cells at 24 hours was determined using the MTT assay, which was carried out according to the manufacturer's protocol (Sigma). BxPC-3 cells were seeded in a 96-well plate and cultured in RPMI 1640 medium supplemented with 10% fetal bovine serum and 1% penicillin/streptomycin, as described above. […] MTT solution (M-0283) in an amount equal to 10% of the culture medium volume was then added to each well and the cells were incubated for 4 hours. The resulting MTT formazan crystals were dissolved by adding MTT Solvent (M-0408) directly to the culture in an amount equal to the original culture volume with gentle stirring and then quantitated by an ELISA Model 680 Microplate Reader (Biorad).

NF-κB p65 [2] = assay: Confocal microscopy co-localization of annexin 1 and p65, BxPC-3 cells; type: cell-based, human; details: 3 h, NO-ASA 20 μM or Dex 4 μM
Procedure: BxPC-3 cells were seeded on cover-glasses in a 12-well plate for 24 h. The cells were exposed to 10 or 20 μM NO-ASA or 2 or 4 μM Dex for 3 h, fixed with 4% paraformaldehyde in PBS containing 30 mM sucrose, permeabilized with 0.2% saponin in PBS containing 30 mM sucrose, and blocked with 5% normal goat serum in PBS containing 1% BSA. The cells were incubated with mouse monoclonal IgG2b anti-annexin 1 (Santa Cruz Biotechnology) and rabbit monoclonal IgG anti-p65 (Cell Signaling, MA) at RT for 1 h. After three washes with PBS containing 1% BSA, the cells were incubated with Alexa555 conjugated donkey anti-mouse IgG (Molecular Probes) and Alexa 488 conjugated goat anti-rabbit IgG (Molecular Probes) at RT for an hour. Images were acquired with a Zeiss LSM 510 META NLO Two-Photon Laser Scanning Image Confocal Microscope and the colocalization scores were generated by the Colocalization Macro program. The control experiments were performed using non-specific mouse IgG2b and/or rabbit IgG. Red fluorescence localized annexin 1, green fluorescence localized p65 (NF-κB) and co-localization of the two proteins generated yellow fluorescence.

HT-29 cells [3] = assay: MTT cell growth assay, HT-29; type: cell-based, human; details: at 24 h; read-out: Inhibition of HT-29 cell growth IC50
NF-κB p65 [4] = assay: Co-immunoprecipitation of annexin 1 with p65, HT-29 cells; type: cell-based, human; details: 3 h, NO-ASA 20 μM or Dex 4 μM
Procedure: The gel shift assays were carried out according to the manufacturer's protocol (Panomics). Nuclear proteins (10 μg) from each sample were mixed with 10 ng biotinylated p65 double-stranded oligonucleotide probes (5′-[…]-3′ and its complement) (SEQ ID NO:9) in the presence of 1 μg Poly(I/C) DNA. The mixture was incubated at room temperature for 30 min. The binding complex was then resolved using a 6% polyacrylamide/glycerol gel in 0.5% Tris-borate-EDTA, transferred onto a nylon membrane, and fixed on the membrane by UV cross-linking The biotin-labeled probe was detected with streptavidin-horseradish peroxidase. Co-immunoprecipitation was performed as follows: about 500 μg of cell extracts were incubated overnight with 5 μg of agarose-conjugated anti-p65 (Santa Cruz Biotechnology) or anti-annexin 1 antibody (Santa Cruz, Calif.). The precipitate was washed five times with washing buffer (Santa Cruz Biotechnology), dissolved in 2× Laemmli buffer, boiled, and separated by SDS-PAGE and detected by Western blot analysis using ECL™ (Amersham Biosciences) as described above. Control experiments were performed by using rabbit IgG for p65 and mouse IgG2b for annexin 1, respectively (Santa Cruz Biotechnology).

HT-29 cells [5] = assay: Apoptosis, Cell Death Detection ELISA, HT-29 cells; type: cell-based, human
Procedure: Apoptosis was determined using the Cell Death Detection ELISA^PLUS assay kit according to the manufacturer's protocol (Roche, Indianapolis, Ind.). Briefly, the cells were treated with either NO-ASA or Dex for 3 h. Cells were harvested and washed three times with PBS. The cell pellet was resuspended with lysis buffer and incubated for 30 min at RT. Cell […] at 200×g for 10 min. The ELISA assay was performed using 20 μl cell lysate and 80 μl Immunoreagent (containing 72 μl Incubation Buffer, 4 μl Anti-histone-biotin Solution, and 4 μl Anti-DNA-POD Solution) per micro-plate well. The micro-plate was covered with an adhesive foil and incubated on a shaker under gentle shaking at 200 rpm for 2 h at RT. The solution in each well was removed thoroughly by tapping and the pellets were rinsed three times with 200 μl Incubation Buffer. […] The absorbance was measured at 405 nm using the SpectraMax micro-plate reader (Molecular Devices, Sunnyvale).
Briefly, annexin 1 cDNA clones (OreGen) or the PCMV6XL5 vector, as a negative control, were transiently transfected into BxPC-3 cells grown to 40-60% confluency using Lipofectamine according to the product protocol (Invitrogen). […] NF-κB activity was subsequently measured by the TransBinding NF-κB Assay Kit and ELISA as described in Example 2. […]

[6] = test system: survivin, Bcl-2, c-IAP-1, c-IAP-2, and TRAF-1; assay: Western blot of NF-κB-dependent anti-apoptotic gene products in BxPC-3 cells; type: cell-based, human; details: at 8 h
Procedure: For Western blotting, the proteins from both cytoplasmic extracts and nuclear extracts were separated by SDS-polyacrylamide gel electrophoresis and transferred onto PVDF membranes (Millipore). The membranes were blocked in 5% nonfat dry milk-TBS-T (20 mM Tris-HCl, pH 7.5, 500 mM NaCl. 0.3% Tween 20) at room temperature (RT) for an hour and probed with anti-annexin 1, c-IAP-1, c-IAP-2, and TRAF-1 (Santa Cruz Biotechnology, Inc. CA), and anti-Bcl-2 antibodies (Cell Signaling Technology), in 5% nonfat dry milk-TBS-T at 4° C. overnight. The blots were washed three times with TBS-T for 5 min each wash and incubated with horseradish peroxidase-conjugated secondary antibody (Santa Cruz) in 5% nonfat dry milk-TBS-T at RT for an hour. After five washes with TBS-T, the blots were developed with the enhanced chemiluminescence system (ECL™ Western Blotting System, Amersham Biosciences) and exposed to x-ray film according to the manufacturer's instructions. Protein loading was normalized using anti-β-actin antibodies (Santa Cruz Biotechnology, Inc).

NF-κB = NF-κB activity ELISA, HT-29 cells; type: cell-based, human; details: 3 h

## nitric oxide-donating aspirin [NO-ASA]
Pancreatic cancer
  prevention of pancreatic cancer: almost completely prevents pancreatic cancer
[1]
  growth of BxPC-3 cells: inhibits the growth
NF-κB p65 [2]
  co-localization of annexin 1 and p65: co-localize most strongly in the nucleus
HT-29 cells [3]
  IC50: 18.8 µM
NF-κB p65 [4]
  co-immunoprecipitation of annexin 1 with p65: co-immunoprecipitated with p65
HT-29 cells [5]; HT-29 cells (FIG. 3D)
  induced cell apoptosis after knock-down of annexin 1 by specific siRNA: completely abrogated
HT-29 cells [5]; HT-29 cells, 3 h
  cell apoptosis: induced
[6]
  expression of NF-κB-dependent anti-apoptotic genes survivin, Bcl-2, c-IAP-1, c-IAP-2, TRAF-1: suppressed the expression
NF-κB
  NF-κB activity: inhibited NF-κB activity in a concentration-dependent manner
